Measured values reported in EP0437336B1, “Biophosphoryl hydrazines and their use as pesticides” (priority 1990, dated 1991).
≈ marks a conversion by molar mass, not a printed value. Read-outs that look alike come from different tables or passages of the source.

How the values were obtained:
Southern Armyworm [1] = assay: Biological Method D: Foliar Insecticidal Activity Test, Southern Armyworm test; assay type: in vivo, Spodoptera eridania; conditions: for LC50: Spodoptera eridania, Method D foliar test, Southern Armyworm; for AW 48 hrs LC50 / AW 96 hrs LC50: foliar spray; for AW 48 hrs LC50: 48 hours after treatment; for AW 96 hrs LC50: 96 hours after treatment
Method: (§1) Biological Method D: Foliar Insecticidal Activity Test
(§2) In evaluating the foliar insecticidal activity of the compounds of this invention against insects and mites, the following test procedures were employed.
(§3) Not all compounds were tested at each of the several concentrations stated above. Test concentrations of a compound were selected as those most likely to differentiate dose response of a particular compound toward a particular test insect.
(§4) Initial evaluations were made on one or more of the following pests:
(§5) For the Mexican Bean Beetle and Southern armyworm tests, individual lima bean (Phaseolus limeniss var. Woods' Prolific) leaves were placed on moistened pieces of filter paper in Petri dishes. The leaves were then sprayed with the test solution using a rotating turntable and allowed to dry. The dishes were then infested with 10 third instar larvae of either the Mexican Been Beetle or the Southern Armyworm. The dishes were then covered. Percent mortality was determined for each species and spray concentration at 48 and 96 hours after treatment.
(§6) The mortalities obtained in this manner were plotted on logarithmic probability paper.
(§7) The rotating turntable consists of a fixed, continuously operating spray nozzle under which targets are rotated at a fixed speed and distance. If the target is a Petri dish (such as for the bean beetle, armyworm, mite, or aphid tests), the distance from the nozzle is 38.1 cm (15 inches). If the target is a Mason jar (such as for the boll weevil test), the distance from the nozzle is 17.8 cm (7 inches). The nozzle is located 8 inches from the rotating shaft. The targets on individual platforms revolve around the shaft at 1 revolution per 20 seconds but only a brief portion of this time occurs in the spray path. Targets pass only once under the nozzle and then are removed to drying hoods.
(§8) The nozzle used is a 1/4 JCO Spraying Systems (Wheaton, Illinois) air atomizing nozzle equipped with a No. 2850 fluid cap and a No. 70 air cap. At the 68.95 x 10³ Pa gauge (10 psig) air pressure used and with liquid siphon feed, 1.89 ℓ/hr [0.5 GPH (gallons per hour)] are delivered in a round spray pattern with a 21 degree spray angle. Targets are misted with spray droplets to the point that the droplets coalesce to form a uniform thin film insufficient to drown test organisms.

Boll Weevil [2] = assay: Biological Method D: Foliar Insecticidal Activity Test, boll weevil test; assay type: in vivo, Anthonomous grandis; conditions: for BW 48 hrs LC50 / BW 96 hrs LC50: spray into jar
Method: as §1, §2, §3, §4
(§9) For the boll weevil test, 10 adult weevils were placed in a 0.24 ℓ (0.5 pint) glass Mason jar containing a small cube of apple. The weevils were confined to the jar by fiberglass screen mesh secured by a screw-type rim cap. The jars were then sprayed with the test solution using a rotating turntable; directing the spray through the mesh into the jar. The percentage killed was determined after forty-eight and ninety six hours.
as §6, §7, §8

[3] = system: southern corn rootworm, Diabrotica undecimpunctata howardi; assay: Biological Method A: Corn Rootworm Screening Test (treated non-aggressive soil); conditions: soil concentration giving 90% mortality, 10 days at 27°C
[4] = system: southern corn rootworm, Diabrotica undecimpunctata howardi; conditions: at-planting soil application
Green Peach Aphid [5] = assay: Biological Method D: Foliar Insecticidal Activity Test, aphid test; assay type: in vivo, Myzus persicae; design: key: I = inactive at concentration listed
Method: as §1, §2, §3, §4
(§10) For the aphid test, infested broccoli (Brassica oleracea italica var. DiCicco) leaves containing about 50 aphids were placed in a Petri dish lid on a moistened piece of cotton. The leaves were then sprayed to thorough wetness with the test solution using a rotating turntable, held for twenty-four hours and then the percentage killed was determined.
as §6, §7, §8

Mexican Bean Beetle = assay: Biological Method D: Foliar Insecticidal Activity Test, Mexican Bean Beetle test; assay type: in vivo, Epilachna varivestis; design: key to LC50 BB 96 hrs / LC50 BB 48 hrs.: I = inactive at concentration listed; conditions: for LC50: Epilachna varivestis
Method: as §1, §2, §3, §4, §5, §6, §7, §8

Two-Spotted Spider Mite = assay: Biological Method D: Foliar Insecticidal Activity Test, mite test; assay type: in vivo, Tetranychus urticae; design: key to LC50 TSM: I = inactive at concentration listed; conditions: for LC50 TSM: Method D foliar test, Two-Spotted Spider Mite; for LC50: Tetranychus urticae, 24 h, read-out: TSM LC50; for LC50 / TSM LC50: foliar spray, kill after twenty-four hours
Method: as §1, §2, §3, §4
as §10, with “mite” for “aphid”, “bean (Phaseolus limensis” for “broccoli (Brassica oleracea italica”, “Woods Prolific) leaf discs [3.18 cm (1.25") in diameter]” for “DiCicco) leaves”, “mites” for “aphids”
as §6, §7, §8

Southern Armyworm [6] = assay: Biological Method D: Foliar Insecticidal Activity Test, Southern Armyworm test; assay type: in vivo, Spodoptera eridania; design: key: I = inactive at concentration listed
Method: as §1, §2, §3, §4, §5, §6, §7, §8

Green Peach Aphid [7] = assay: Biological Method D: Foliar Insecticidal Activity Test, aphid test; assay type: in vivo, Myzus persicae; conditions: foliar spray; kill after twenty-four hours
Method: as §1, §2, §3, §4, §10, §6, §7, §8

Boll Weevil [8] = assay: Biological Method D: Foliar Insecticidal Activity Test, boll weevil test; assay type: in vivo, Anthonomous grandis; design: key: I = inactive at concentration listed
Method: as §1, §2, §3, §4, §9, §6, §7, §8

[9] = 96 hrs, read-out: LC50 AW 96 hrs
[10] = Method D foliar test, Boll Weevil
[11] = Method D foliar test, Mexican Bean Beetle, 48 hrs
[12] = Method D foliar test, Mexican Bean Beetle, 96 hrs
[13] = foliar spray, 48 hours after treatment, read-out: BB 48 hrs. LC50
[14] = foliar spray, 96 hours after treatment, read-out: BB 96 hrs LC50
[15] = Method D foliar test, Mexican Bean Beetle, 96 hrs, read-out: LC50 BB 96 hrs
[16] = 48 hrs, read-out: LC50 AW 48 hrs

| Structure (SMILES) | primary nonagressive Method A crw LC90 [3] | secondary aggressive Method C crw LC50 ([4]; rated 17 days post-infestation) | secondary aggressive Method C crw LC50 ([4]; value in brackets) | LC50 GPA (Green Peach Aphid [5]) | LC50 BB 48 hrs. (Mexican Bean Beetle; [11]) | LC50 TSM (Two-Spotted Spider Mite) | AW 48 hrs LC50 (Southern Armyworm [1]) | AW 96 hrs LC50 (Southern Armyworm [1]) | BW 48 hrs LC50 (Boll Weevil [2]) | BW 96 hrs LC50 (Boll Weevil [2]) | GPA LC50 (Green Peach Aphid [7]) | LC50 (Mexican Bean Beetle; [13]) | LC50 (Mexican Bean Beetle; [14]) | LC50 BW 48 hrs (Boll Weevil [8]) | TSM LC50 (Two-Spotted Spider Mite) | other results |
| --- | --- | --- | --- | --- | --- | --- | --- | --- | --- | --- | --- | --- | --- | --- | --- | --- |
| CCOP(=S)(NNP(=S)(OC)OC)OCC(C)(C)C (stereo not drawn) [Compound 44] | 0.37 ppm | 0.56 kg/ha | 0.50 lb/acre | I | I | I | – | – | – | – | – | – | – | – | – | LC50 (Southern Armyworm [1]; [9]): 500 µg/mL (≈ 1430 µM); LC50 BW 48 hrs (Boll Weevil [2]; Method D foliar test, Boll Weevil, 48 hrs): 380 ppm; LC50 BW 96 hrs (Boll Weevil [2]; [10]): 380 ppm; LC50 BB 96 hrs (Mexican Bean Beetle; [12]): I; LC50 AW 48 hrs (Southern Armyworm [6]): I |
| CCOP(=S)(NNP(=S)(OCC)OCC(F)(F)C(F)(F)F)OCC (stereo not drawn) [Compound 78] | 1.1 ppm | – | – | – | – | – | I | I | I | I | I | 360 µg/mL (≈ 818 µM) | 150 µg/mL (≈ 341 µM) | – | – | LC50 (Two-Spotted Spider Mite): 150 µg/mL (≈ 341 µM) |
| CCCOP(=S)(NNP(=S)(OCC)OCC)OCC(C)(C)C (stereo not drawn) [Compound 34] | 1.1 ppm | 0.65 kg/ha | 0.58 lb/acre | I | I | I | – | – | – | – | – | – | – | I | – | LC50 BW 96 hrs (Boll Weevil [8]): I; LC50 (Mexican Bean Beetle; [15]): 52 µg/mL (≈ 132 µM); LC50 AW 48 hrs (Southern Armyworm [6]): I; LC50 AW 96 hrs (Southern Armyworm [6]): I |
| CCOP(=S)(NNP(=S)(OCC)OC(C)C)OC(C)C (stereo not drawn) [Compound 67, reference compound] | 0.09 ppm | – | – | – | – | – | I | I | I | I | I | 150 µg/mL (≈ 412 µM) | 62 µg/mL (≈ 170 µM) | – | – | LC50 (Two-Spotted Spider Mite): 150 µg/mL (≈ 412 µM) |
| CCOP(=S)(NNP(=S)(OCC(C)(C)C)OC(C)C)OCC (stereo not drawn) [Compound 68] | 1.1 ppm | – | – | – | – | – | I | I | I | I | I | 500 µg/mL (≈ 1270 µM) | 150 µg/mL (≈ 382 µM) | – | – | LC50 (Two-Spotted Spider Mite): 520 µg/mL (≈ 1320 µM) |
| CCCOP(=S)(NNP(=O)(OCC)SC(C)CC)OCC (stereo not drawn) [Compound 54] | 1.1 ppm | – | – | I | I | I | – | – | – | – | – | – | – | I | – | LC50 (Southern Armyworm [1]; [16]): 52 µg/mL (≈ 137 µM); LC50 BB 96 hrs (Mexican Bean Beetle; [12]): I; LC50 AW 96 hrs (Southern Armyworm [6]): I |
| CCCCCCOP(=S)(NNP(=S)(OCC)OCC)OCC (stereo not drawn) [Compound 77] | 1.1 ppm | – | – | – | – | – | I | I | I | I | I | 150 µg/mL (≈ 382 µM) | 150 µg/mL (≈ 382 µM) | – | I | – |
| CCOP(=S)(NCC(C)C)NNP(=S)(OCC)OCC (stereo not drawn) [Compound 71] | 1.1 ppm | – | – | – | – | – | I | I | I | I | I | 150 µg/mL (≈ 413 µM) | 150 µg/mL (≈ 413 µM) | – | I | – |
| CCCOP(=S)(NNP(=S)(OCC)N1CCCCC1)OCCC (stereo not drawn) [Compound 64] | 8.6 ppm | – | – | – | – | – | I | I | I | I | I | 740 µg/mL (≈ 1830 µM) | 740 µg/mL (≈ 1830 µM) | – | I | – |
| CCCCCOP(=S)(NNP(=S)(OCCC)OCCC)OCC (stereo not drawn) [Compound 79] | 1.1 ppm | – | – | – | – | – | I | I | I | I | I | 380 µg/mL (≈ 935 µM) | 62 µg/mL (≈ 153 µM) | – | I | – |
| CCOP(=S)(NNP(=S)(OC(C)C)OC(C)C)OCC(C)C (stereo not drawn) [Compound 83] | – | – | – | – | – | – | I | – | – | – | I | 500 µg/mL (≈ 1270 µM) | 62 µg/mL (≈ 158 µM) | – | I | – |
| CCCOP(=S)(NNP(=S)(OCC)OCC(C)(C)C)OCC (stereo not drawn) [Compound 45, N-(O-ethyl O-propylthiophosphoryl) N′-(O-ethyl O-neopentylthiophosphoryl) hydrazine] | 0.39 ppm | 0.37 kg/ha | 0.33 lb/acre | I | I | I | – | – | – | – | – | – | – | I | – | LC50 (Southern Armyworm [1]; [9]): 150 µg/mL (≈ 382 µM); LC50 BW 96 hrs (Boll Weevil [2]; [10]): 150 ppm; LC50 BB 96 hrs (Mexican Bean Beetle; [12]): I; LC50 AW 48 hrs (Southern Armyworm [6]): I |
| CCCCCCOP(=S)(NNP(=S)(OCCC)OCCC)OCC (stereo not drawn) [Compound 80] | 1.1 ppm | – | – | – | – | – | I | I | I | I | I | – | – | – | I | – |
| CCCCCCCCOP(=S)(NNP(=S)(OCC)OCC)OCC (stereo not drawn) [Compound 72] | 1.1 ppm | – | – | – | – | – | I | I | I | I | I | – | – | – | I | – |
| CCOP(=S)(NNP(=S)(OCC)OC(C)(C(F)(F)F)C(F)(F)F)OCC(C)(C)C (stereo not drawn) [Compound 48] | 0.40 ppm | 0.63 kg/ha | 0.56 lb/acre | I | I | I | – | – | – | – | – | – | – | I | – | LC50 (Southern Armyworm [1]; [16]): 300 µg/mL (≈ 583 µM); LC50 (Southern Armyworm [1]; [9]): 150 µg/mL (≈ 292 µM); LC50 BW 96 hrs (Boll Weevil [8]): I; LC50 BB 96 hrs (Mexican Bean Beetle; [12]): I |
| CCOP(=O)(NNP(=S)(OCC)OCC(C)(C)C)SC(C)CC (stereo not drawn) [Compound 52] | 1.1 ppm | 0.78 kg/ha | 0.70 lb/acre | I | – | I | – | – | – | – | – | – | – | I | – | LC50 BW 96 hrs (Boll Weevil [8]): I; LC50 (Mexican Bean Beetle; Method D foliar test, Mexican Bean Beetle, 48 hrs, read-out: LC50 BB 48 hrs.): 500 µg/mL (≈ 1230 µM); LC50 (Mexican Bean Beetle; [15]): 150 µg/mL (≈ 369 µM); LC50 AW 48 hrs (Southern Armyworm [6]): I; LC50 AW 96 hrs (Southern Armyworm [6]): I |
| CCOP(=S)(NNP(=S)(OCC)OC(C)CC)OCC(C)(C)C (stereo not drawn) [Compound 47, N-(O-ethyl O-secbutylthiophosphoryl) N′-(O-ethyl O-neopentylthiophosphoryl) hydrazine] | 0.09 ppm | 0.38 kg/ha | 0.34 lb/acre | I | I | I | – | – | – | – | – | – | – | I | – | LC50 BW 96 hrs (Boll Weevil [8]): I; LC50 (Mexican Bean Beetle; [15]): 45 µg/mL (≈ 111 µM); LC50 AW 48 hrs (Southern Armyworm [6]): I; LC50 AW 96 hrs (Southern Armyworm [6]): I |
